Patent US12552785B2, “Pyrazolo[1,5-α]pyridine derivative, preparation method therefor, and composition and use thereof” (SHENZHEN ZHONGGE BIOLOGICAL TECHNOLOGY CO., LTD., priority 2020, dated 2026)

Experiments:
Ba/F3-KIF5B-RET cell = molecular target: T1, Ba/F3-KIF5B-RET cell (Homo sapiens, UniProt P07949); experiment: CellTiter-Glo luminescence assay for inhibitory activity against Ba/F3-KIF5B-RET cell; format: cell-based; details: Ba/F3-KIF5B-RET cells, 72 h
T1 construct: fused on or other part: P33176 (Kinesin-1 heavy chain)
Text: (c) In Vitro Screening Experiment—CellTiter-Glo Luminescence Assay for Testing the Inhibitory Activity of Compounds Against Ba/F3-KIF5B-RET Cell Experimental Procedure: 1. The mammalian cell expression vector containing human KIF5B-RET cDNA was introduced into Ba/F3 cells using the Neon® transfection system method, and the surviving clones screened by puromycin were subjected to cell growth inhibitory function experiments and Western blotting to verify cell lines with stable and high expression of RET. 2. […] 3. The test compound (5 mM stock) was diluted 2.5 folds to 2 mM with 100% dimethyl sulfoxide; and the compound was diluted into 10 concentrations at an equal ratio of 1:3 in a 384-well dilution plate. 4. […] 6. […] 7. By fitting the data with XLFit 5.0 based on the parameters formula, the IC50 value was calculated as: Y=Bottom+(Top−Bottom)/(1+10^((Log IC50−X)*HillSlope)).

VEGFR2 = VEGFR2 (Homo sapiens, UniProt P35968); experiment: HTRF method for testing the inhibitory activity of compounds against VEGFR2; format: biochemical; details: IC50 by nonlinear regression, read-out: VEGFR2 kinase activity
Experimental: (b) In Vitro Screening Experiment—HTRF Method for Testing the Inhibitory Activity of Compounds Against VEGFR2 Experimental Procedure: 1. […] The test compound (5 mM stock solution) was diluted 5 folds to 1 mM with 100% dimethyl sulfoxide; the compound was diluted into 10 concentrations at an equal ratio of 1:3 in a 384-well dilution plate. 3. […] 6. […] The reaction solution was centrifuged at 1000 g for 30 s, and then sealed, and incubated at room temperature for 40 min. 8. […] 10. […] 11. […] 12. IC50 was calculated with software GraphPad 6.0 by fitting inhibition values and logarithms of compound concentrations to a nonlinear regression (dose response−variable slope).

RET = RET (Homo sapiens, UniProt P07949); experiment: HTRF method for testing the inhibitory activity of compounds against RET; format: biochemical; details: IC50 by nonlinear regression, read-out: RET kinase activity
Experimental: (a) In Vitro Screening Experiment-HTRF Method for Testing the Inhibitory Activity of Compounds Against RET Experimental Procedure: 1. […] 2. The test compound (5 mM stock solution) was diluted 5 folds to 1 mM with 100% dimethyl sulfoxide; the compound was diluted into 10 concentrations at an equal ratio of 1:3 in a 384-well dilution plate. 3. 0.2 μL of the serially diluted compound was added to a 384-well plate using an Echo 550 pipetting system, 2 replicate wells for each concentration, and the final concentration of dimethyl sulfoxide was 0.5% (v/v). […] 6. […] The reaction solution was centrifuged at 1000 g for 30 s, and then sealed, and incubated at room temperature for 30 min. 8. […] 10. […] 11. […] IC50 was calculated with software GraphPad 6.0 by fitting inhibition values and logarithms of compound concentrations to a nonlinear regression (dose response−variable slope).

T1 sequence (P07949 whole entry, stated change not applied, the tested form may be a part): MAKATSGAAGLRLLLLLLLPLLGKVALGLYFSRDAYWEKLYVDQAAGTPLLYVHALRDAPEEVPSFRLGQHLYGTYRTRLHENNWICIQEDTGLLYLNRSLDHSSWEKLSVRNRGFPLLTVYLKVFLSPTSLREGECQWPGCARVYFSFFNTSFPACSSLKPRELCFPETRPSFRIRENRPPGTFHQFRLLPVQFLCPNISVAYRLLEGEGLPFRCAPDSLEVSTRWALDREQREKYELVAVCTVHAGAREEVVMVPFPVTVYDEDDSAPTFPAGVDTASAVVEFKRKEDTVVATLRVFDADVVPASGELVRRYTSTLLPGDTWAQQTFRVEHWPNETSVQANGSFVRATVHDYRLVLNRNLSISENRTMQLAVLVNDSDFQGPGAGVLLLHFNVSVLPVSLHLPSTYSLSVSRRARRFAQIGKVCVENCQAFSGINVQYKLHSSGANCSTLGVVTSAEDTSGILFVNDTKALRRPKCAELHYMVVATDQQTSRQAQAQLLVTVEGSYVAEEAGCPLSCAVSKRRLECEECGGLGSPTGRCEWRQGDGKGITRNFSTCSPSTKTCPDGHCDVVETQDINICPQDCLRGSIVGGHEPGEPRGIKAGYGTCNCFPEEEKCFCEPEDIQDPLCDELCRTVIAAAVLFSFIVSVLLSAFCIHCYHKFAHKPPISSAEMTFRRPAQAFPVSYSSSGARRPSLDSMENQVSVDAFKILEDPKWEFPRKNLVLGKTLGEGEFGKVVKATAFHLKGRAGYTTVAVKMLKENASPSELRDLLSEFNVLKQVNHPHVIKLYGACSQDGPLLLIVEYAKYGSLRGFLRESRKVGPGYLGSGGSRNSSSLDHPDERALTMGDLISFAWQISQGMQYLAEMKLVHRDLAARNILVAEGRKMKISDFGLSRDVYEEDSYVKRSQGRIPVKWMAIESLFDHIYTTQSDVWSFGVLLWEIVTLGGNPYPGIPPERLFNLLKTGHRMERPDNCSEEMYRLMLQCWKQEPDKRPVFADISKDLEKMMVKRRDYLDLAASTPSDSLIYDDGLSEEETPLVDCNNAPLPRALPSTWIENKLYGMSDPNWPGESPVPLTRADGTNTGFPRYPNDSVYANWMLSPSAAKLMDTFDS
Chain of RET (P07949 29-1114): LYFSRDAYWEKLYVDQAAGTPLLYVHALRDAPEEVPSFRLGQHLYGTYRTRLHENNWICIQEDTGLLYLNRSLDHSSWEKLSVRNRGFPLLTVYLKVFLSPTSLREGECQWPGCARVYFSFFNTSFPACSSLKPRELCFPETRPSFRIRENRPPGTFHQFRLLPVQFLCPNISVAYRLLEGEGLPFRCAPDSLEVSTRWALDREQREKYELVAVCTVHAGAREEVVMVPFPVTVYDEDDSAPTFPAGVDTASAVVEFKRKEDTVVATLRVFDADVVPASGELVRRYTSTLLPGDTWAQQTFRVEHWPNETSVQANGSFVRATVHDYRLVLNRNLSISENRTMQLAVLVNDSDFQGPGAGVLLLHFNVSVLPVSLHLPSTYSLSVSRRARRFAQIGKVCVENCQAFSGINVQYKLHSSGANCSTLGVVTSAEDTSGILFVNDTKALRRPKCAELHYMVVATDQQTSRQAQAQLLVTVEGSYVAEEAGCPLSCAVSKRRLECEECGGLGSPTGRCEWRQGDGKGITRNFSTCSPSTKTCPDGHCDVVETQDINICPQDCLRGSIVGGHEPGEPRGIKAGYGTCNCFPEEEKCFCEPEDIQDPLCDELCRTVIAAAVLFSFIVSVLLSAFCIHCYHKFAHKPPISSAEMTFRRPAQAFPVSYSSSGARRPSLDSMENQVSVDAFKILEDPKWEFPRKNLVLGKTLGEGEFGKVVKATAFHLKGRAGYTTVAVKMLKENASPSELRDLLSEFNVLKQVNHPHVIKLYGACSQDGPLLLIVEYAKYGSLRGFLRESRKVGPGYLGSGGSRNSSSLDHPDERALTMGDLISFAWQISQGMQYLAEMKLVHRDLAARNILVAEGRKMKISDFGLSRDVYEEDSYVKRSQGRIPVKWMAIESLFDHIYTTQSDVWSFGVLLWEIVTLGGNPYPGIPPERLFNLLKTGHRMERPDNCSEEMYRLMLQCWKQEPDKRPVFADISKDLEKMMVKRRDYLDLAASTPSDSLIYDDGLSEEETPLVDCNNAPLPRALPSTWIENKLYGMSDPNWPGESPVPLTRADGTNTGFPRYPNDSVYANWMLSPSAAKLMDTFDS
Chain of VEGFR2 (P35968 20-1356, species assumed): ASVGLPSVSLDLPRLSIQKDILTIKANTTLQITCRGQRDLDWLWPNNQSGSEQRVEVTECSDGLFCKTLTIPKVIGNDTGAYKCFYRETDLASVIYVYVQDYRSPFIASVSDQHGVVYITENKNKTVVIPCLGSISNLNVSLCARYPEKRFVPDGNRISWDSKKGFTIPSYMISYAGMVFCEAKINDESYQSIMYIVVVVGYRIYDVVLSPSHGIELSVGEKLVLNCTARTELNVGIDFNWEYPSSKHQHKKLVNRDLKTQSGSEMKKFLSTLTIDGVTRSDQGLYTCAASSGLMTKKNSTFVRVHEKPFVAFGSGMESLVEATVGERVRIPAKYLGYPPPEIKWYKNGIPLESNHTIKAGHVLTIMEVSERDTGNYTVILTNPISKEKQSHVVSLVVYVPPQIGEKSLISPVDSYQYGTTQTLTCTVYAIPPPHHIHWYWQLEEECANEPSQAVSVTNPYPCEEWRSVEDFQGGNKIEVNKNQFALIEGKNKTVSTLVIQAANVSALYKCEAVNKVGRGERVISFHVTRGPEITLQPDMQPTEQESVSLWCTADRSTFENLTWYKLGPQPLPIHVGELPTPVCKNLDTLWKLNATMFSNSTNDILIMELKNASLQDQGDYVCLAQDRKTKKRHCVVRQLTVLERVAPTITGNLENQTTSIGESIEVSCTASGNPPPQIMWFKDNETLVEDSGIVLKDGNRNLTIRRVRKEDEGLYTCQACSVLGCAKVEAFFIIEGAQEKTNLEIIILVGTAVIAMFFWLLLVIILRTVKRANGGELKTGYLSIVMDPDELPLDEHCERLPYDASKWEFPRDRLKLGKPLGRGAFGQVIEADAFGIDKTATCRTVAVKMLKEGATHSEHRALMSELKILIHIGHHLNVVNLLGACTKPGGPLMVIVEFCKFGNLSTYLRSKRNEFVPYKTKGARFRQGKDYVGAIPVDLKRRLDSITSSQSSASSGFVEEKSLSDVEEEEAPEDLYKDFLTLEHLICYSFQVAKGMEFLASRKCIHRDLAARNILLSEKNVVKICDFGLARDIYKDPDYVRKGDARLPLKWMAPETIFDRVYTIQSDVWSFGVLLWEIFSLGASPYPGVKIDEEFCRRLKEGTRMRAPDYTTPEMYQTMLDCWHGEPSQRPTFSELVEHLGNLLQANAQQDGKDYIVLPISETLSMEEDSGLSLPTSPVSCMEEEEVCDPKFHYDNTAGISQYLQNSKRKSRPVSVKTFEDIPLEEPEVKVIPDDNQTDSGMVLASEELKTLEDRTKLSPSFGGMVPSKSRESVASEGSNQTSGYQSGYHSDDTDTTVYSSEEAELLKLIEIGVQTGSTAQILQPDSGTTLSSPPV

| GI50 (Ba/F3-KIF5B-RET cell) [nM] | IC50 (VEGFR2) [nM] | IC50 (RET) [nM] | SMILES |
| --- | --- | --- | --- |
| 35 | 245 | 2.05 | COc1ccc([C@H](C)N(C)c2ccc(-c3cc(OCC(C)(C)O)cn4ncc(C#N)c34)cn2)cn1 [Compound 43, (S)-6-(2-hydroxy-2-methylpropoxy)-4-(6-((1-(6-methoxypyridin-3-yl)ethyl)(methyl)amino)pyridin-3-yl)pyrazolo[1,5-a]pyridine-3-carbonitrile] |
| 18.6 | 18 | 0.26 | CC[C@@H](c1ccc(-n2cc(F)cn2)nc1)N(C)c1ccc(-c2cc(OCC(C)(C)O)cn3ncc(C#N)c23)cn1 [Compound 44, (S)-4-(6-((1-(6-(4-fluoro-1H-pyrazolyl)pyridin-3-yl)propyl)(methyl)amino)pyridin-3-yl)-6-(2-hydroxy-2-methylpropoxy)pyrazo[1,5-a]pyridine-3-carbonitrile] |
| 13.6 | 80.5 | 0.73 | C[C@@H](c1ccc(-n2cc(F)cn2)nc1)N(C)c1ccc(-c2cc(OCC3(O)CC3)cn3ncc(C#N)c23)cn1 [Compound 46, (S)-4-(6-((1-(6-(4-fluoro-1H-pyrazolyl)pyridin-3-yl)ethyl)(methyl)amino)pyridin-3-yl)-6-((1-hydroxycyclopropyl)methoxy)pyrazolo[1,5-a]pyridine-3-carbonitrile] |
| 236 | > 5000 | 5.45 | C[C@@H](c1ccc(-n2cc(F)cn2)nc1)N(C)c1ccc(-c2cc(N3CCCCC3)cn3ncc(C#N)c23)cn1 [Compound 47, (S)-4-(6-((1-(6-(4-fluoro-1H-pyrazol-1-yl)pyridin-3-yl)ethyl)(methyl)amino)pyridine-3-yl)-6-(piperidin-1-yl)pyrazolo[1,5-a]pyridine-3-carbonitrile] |
| 142 | ≥ 5440 | 4.32 | C[C@@H](c1ccc(-n2cc(F)cn2)nc1)N(C)c1ccc(-c2cc(N3CCC(F)(F)CC3)cn3ncc(C#N)c23)cn1 [Compound 48] |
| 30.7 | > 5000 | 1.25 | C[C@@H](c1ccc(-n2cc(F)cn2)nc1)N(C)c1ccc(-c2cc(NCC3CC3)cn3ncc(C#N)c23)cn1 [Compound 49, (S)-6-((cyclopropylmethyl)amino)-4-(6-((1-(6-(4-fluoro-1H-pyrazol-1-yl)pyridin-3-yl)ethyl)(methyl)amino)pyridin-3-yl)pyrazolo[1,5-a]pyridine-3-carbonitrile] |
| 104 | 156 | 1.67 | CC(C)Nc1cc(-c2ccc(N(C)[C@@H](C)c3ccc(-n4cc(F)cn4)nc3)nc2)c2c(C#N)cnn2c1 [Compound 50, (S)-4-(6-((1-(6-(4-fluoro-1H-pyrazol-1-yl)pyridin-3-yl)ethyl)(methyl)amino)pyridine-3-yl)-6-(isopropylamino)pyrazolo[1,5-a]pyridine-3-carbonitrile] |
| 5.02 | 4.14 | 0.47 | CCNc1cc(-c2ccc(N(C)[C@@H](C)c3ccc(-n4cc(F)cn4)nc3)nc2)c2c(C#N)cnn2c1 [Compound 51, (S)-4-(6-((1-(6-(4-fluoro-1H-pyrazol-1-yl)pyridin-3-yl)ethyl)(methyl)amino)pyridine-3-yl)-6-(ethylamino)pyrazolo[1,5-a]pyridine-3-carbonitrile] |
| 432 | 293 | 5.52 | C#CCOc1cc(-c2ccc(N(C)[C@@H](C)c3ccc(-n4cc(F)cn4)nc3)nc2)c2c(C#N)cnn2c1 [Compound 53, (S)-4-(6-((1-(6-(4-fluoro-1H-pyrazol-1-yl)pyridin-3-yl)ethyl)(methyl)amino)pyridine-3-yl)-6-(prop-2-yn-1-yloxy)pyrazolo[1,5-a]pyridine-3-carbonitrile] |
| 380 | > 5000 | 3.79 | COCOc1cc(-c2ccc(N(C)[C@@H](C)c3ccc(-n4cc(F)cn4)nc3)nc2)c2c(C#N)cnn2c1 [Compound 55, (S)-4-(6-((1-(6-(4-fluoro-1H-pyrazol-1-yl)pyridin-3-yl)ethyl)(methyl)amino)pyridine-3-yl)-6-(methoxymethoxy)pyrazolo[1,5-a]pyridine-3-carbonitrile] |
| 13.9 | 30.2 | 0.68 | CN(Cc1ccc(-n2cc(F)cn2)nc1)c1ccc(-c2cc(OCC(C)(C)O)cn3ncc(C#N)c23)cn1 [Compound 56, 4-(6-(((6-(4-fluoro-1H-pyrazol-1-yl)pyridin-3-yl)methyl)(methyl)amino)pyridin-3-yl)-6-(2-hydroxy-2-methylpropoxy)pyrazolo[1,5-a]pyridine-3-carbonitrile] |
| 40.7 | 59.2 | 1.3 | CCN(Cc1ccc(-n2cc(F)cn2)nc1)c1ccc(-c2cc(OCC(C)(C)O)cn3ncc(C#N)c23)cn1 [Compound 57] |
| 42.8 | 26.5 | 0.5 | C[C@@H](c1ccc(-n2cccn2)nc1)N(C)c1ccc(-c2cc(OCC(C)(C)O)cn3ncc(C#N)c23)cn1 [Compound 58, (S)-4-(6-((1-(6-(1H-pyrazol-1-yl)pyridin-3-yl)ethyl)(methyl)amino)pyridin-3-yl)-6-(2-hydroxy-2-methylpropoxy)pyrazolo[1,5-a]pyridine-3-carbonitrile] |
| 11.6 | 43.9 | 0.98 | CCCNc1cc(-c2ccc(N(C)[C@@H](C)c3ccc(-n4cc(F)cn4)nc3)nc2)c2c(C#N)cnn2c1 [Compound 60] |
| 1.53 | 25.5 | 0.48 | C[C@@H](c1ccc(-n2cc(F)cn2)nc1)N(C)c1ccc(-c2cc(OCC(C)(C)O)cn3ncc(C#N)c23)cn1 [Compound 61, (S)-4-(6-((1-(6-(4-fluoro-1H-pyrazol-1-yl)pyridin-3-yl)ethyl)(methyl)amino)pyridine-3-yl)-6-(2-hydroxy-2-methylpropoxy)pyrazolo[1,5-a]pyridine-3-carbonitrile] |
| 1030 | 176 | 1.85 | C[C@@H](c1ccc(N2CCCC2)nc1)N(C)c1ccc(-c2cc(OCC(C)(C)O)cn3ncc(C#N)c23)cn1 [Compound 62] |
| 1120 | 2480 | > 500 | CN(C(=O)c1ccc(N2CCCC2)nc1)c1ccc(-c2cc(OCC(C)(C)O)cn3ncc(C#N)c23)cn1 [Compound 64] |
